In PMC8781304, “Arene-Ruthenium(II) Complexes with Carbothiamidopyrazoles as a Potential Alternative for Antibiotic Resistance in Human” (Molecules, 2022):
≈ marks a conversion by molar mass, not a printed value. Like-named read-outs stand apart in the source and are kept apart here. One block for each molecule: values may come before it.

Tests used:
[1] = tested on: S. aureus ATCC 29213; assay: Synergy with oxacillin and vancomycin, partial checkerboard broth microdilution; format: cell-based, Staphylococcus aureus; details: S. aureus ATCC 29213; for FIC (Oxa) / FIC (Van): MIC antibiotic in combination/MIC antibiotic alone; for MIC Oxa in Combination: oxacillin with the complex at ½ MIC (NH4PF6 250 µg/mL); for MIC Van in Combination: vancomycin with the complex at ½ MIC (NH4PF6 250 µg/mL)
[2] = tested on: S. epidermidis ATCC 12228; assay: as above; format: cell-based, Staphylococcus epidermidis; details: S. epidermidis ATCC 12228; for FIC (Oxa) / FIC (Van): MIC antibiotic in combination/MIC antibiotic alone; for MIC Oxa in Combination: oxacillin with the complex at ½ MIC (NH4PF6 250 µg/mL); for MIC Van in Combination: vancomycin with the complex at ½ MIC (NH4PF6 250 µg/mL)
[3] = tested on: S. aureus ATCC 29213; assay: Time-kill test; format: cell-based, Staphylococcus aureus; details: 1 × MIC
Protocol: (§1) The time-kill experiments were performed as described previously. Briefly, inocula were prepared in TSB medium (TSB; […] BTL Sp. z o.o., Łódź, Poland). All samples were incubated at 35 °C and 80 rpm for varied time intervals (2, 4, 6, 12, 18, 24, 48h). The percentage of dead cells was calculated according to the growth control by determining the number of living cells (CFU/mL) of each tube using the agar plate count method. Samples were immediately serially diluted ten-fold in 0.01 M phosphate buffered saline (PBS, Bimed Lublin S.A., Lublin, Poland) at pH 7.0 and 10 μL aliquots were spot-inoculated in duplicate onto MHA plates. Agar plates were incubated at 37 °C overnight before determining the viable count. Two independent experiments were carried out.

[4] = tested on: S. epidermidis ATCC 12228; assay: Time-kill test; format: cell-based, Staphylococcus epidermidis; details: 1 × MIC
Protocol: as §1

[5] = tested on: S. epidermidis ATCC 12228; assay: Cell lysis (bacteriolysis, OD600); format: cell-based, Staphylococcus epidermidis; details: 1 × MBC
[6] = tested on: Staphylococcus aureus ATCC 29213; assay: Fluorescence microscopy, Hoechst 33258 / propidium iodide viability; format: cell-based; details: S. aureus ATCC 29213; MIC concentration, 24 h
Protocol: (§2) Staphylococcus aureus ATCC 29213 and Staphylococcus epidermidis ATCC 12228 strains were treated with tested compounds 2a–2d and 3a–3d at a concentration 1 × MIC for 24h, while untreated cells were used as a growth control. After incubation, the cells were harvested and a suspension of 1 × 10^5 cells/mL in PBS was prepared. Following this, 1 µl of the fluorescent dyes Hoechst 33258 and propidium iodide (15 µg/mL each) (Sigma, St. Louis, MO, USA) were added. The obtained mixture was incubated in the dark at room temperature for 15–20 min. After incubation, the cell suspensions, placed on glass slides, were analyzed under an Olympus IX 70 fluorescence microscope (Shinjuku, Tokyo, Japan), using a 360–370 nm UV filter. Photos were taken at 10 × 20 magnification.

[7] = tested on: Staphylococcus epidermidis ATCC 12228; assay: as above; format: cell-based; details: S. epidermidis ATCC 12228; MIC concentration, 24 h
Protocol: as §2

[8] = tested on: Candida albicans ATCC 10231; assay: MIC and MBC/MFC by broth microdilution; format: cell-based; details: C. albicans ATCC 10231
Protocol: (§3) Reference strains of bacteria and fungi: Staphylococcus aureus ATCC 29213, Staphylococcus epidermidis ATCC 12228, Enterococcus faecalis ATCC 29212, Pseudomonas aeruginosa ATCC 25619, Proteus vulgaris ATCC 8427, and Candida albicans ATCC 10231 (Manassas, VA, USA) were used to screen the antimicrobial activity of the arene-ruthenium(II) complexes 3a-3d, NH4PF6 and selected antibiotics. The microorganisms were grown for 24 h (bacteria) or 48 h (fungi) in 35-37 °C in tryptic-soy agar (TSA; BTL Sp. z o.o., Łódź, Poland) or Sabouraud's dextrose agar (SDA; BTL Sp. z o.o., Łódź, Poland) according to nutritional requirements. Microbial suspensions at a density of about 5 × 10^5 CFU/mL were prepared in Mueller-Hinton broth (MHB; BTL Sp. z o.o., Łódź, Poland) or RPMI-1640 medium (Sigma, St. Louis, MO, USA) for bacteria and fungi, respectively. […] Louis, MO, USA). Stock solutions of the lyophilized compounds were freshly prepared in 100% DMSO (POCh, Gliwice, Poland) for the complexes, or in water for injection (Sigma, St. Louis, MO, USA) in the case of antibiotics. […] MIC and MBC/MFC were defined as the lowest concentrations of the compounds inhibiting bacterial/fungal growth or able to kill added microbial inoculum, respectively, and were evaluated as described by […] et al.. Experiments were carried out in duplicate.

[9] = tested on: Enterococcus faecalis ATCC 29212; assay: MIC and MBC/MFC by broth microdilution; format: cell-based; details: E. faecalis ATCC 29212
Protocol: as §3

[10] = tested on: Proteus vulgaris ATCC 8427; assay: MIC and MBC/MFC by broth microdilution; format: cell-based; details: P. vulgaris ATCC 8427
Protocol: as §3

[11] = tested on: Pseudomonas aeruginosa ATCC 25619; assay: MIC and MBC/MFC by broth microdilution; format: cell-based; details: P. aeruginosa ATCC 25619
Protocol: as §3

SMILES: Cc1cc(C)n(C(N)=S)n1.Cc1ccc(C(C)C)cc1.[Cl-].[Cl][Ru+] [Compound 2a]
FIC (Oxa) [1]: 1 | FIC (Van) [1]: 1 | MIC Oxa in Combination [1]: 0.250 µg/mL | MIC Van in Combination [1]: 0.50 µg/mL | FIC (Oxa) [2]: 0.06 | FIC (Van) [2]: 0.03 | MIC Oxa in Combination [2]: 0.015 µg/mL | MIC Van in Combination [2]: 0.015 µg/mL | Time-kill: bacteriostatic or bactericidal [3]: bacteriostatic | Time-kill: bacteriostatic or bactericidal [4]: bacteriostatic | Cell lysis, change of OD600 [5]: not found to change OD600 values | Change in bacterial viability (Hoechst 33258 / PI fluorescence) [6]: Less changes in cell survival | Change in bacterial viability (Hoechst 33258 / PI fluorescence) [7]: Less changes in cell survival

SMILES: Cc1ccc(C(C)C)cc1.Cc1ccc(C(C)C)cc1.[Cl][Ru][Cl].[Cl][Ru][Cl] [Dimer, dichloro(p-cymene)ruthenium(II) dimer]
Correlation with Oxa and Van (synergy), in words [1]: did not show any synergistic effect | FIC (Oxa) [1]: 1 | FIC (Van) [1]: 1 | MIC Oxa in Combination [1]: 0.250 µg/mL | MIC Van in Combination [1]: 0.50 µg/mL | Correlation with Oxa and Van (synergy), in words [2]: did not show any synergistic effect | FIC (Oxa) [2]: 1 | FIC (Van) [2]: 2 | MIC Oxa in Combination [2]: 0.25 µg/mL | MIC Van in Combination [2]: 1 µg/mL

MIC [8]: >16 µg/mL | MIC ([8]; Candida albicans, ATCC10231, read-out: MIC): > 16 µg/mL
SMILES: OC(Cn1cncn1)(Cn1cncn1)c1ccc(F)cc1F [Flu, fluconazole, reference compound]
MBC/MFC [8]: >16 µg/mL

MIC [9]: <2 µg/mL | MIC ([9]; Enterococcus faecalis, ATCC29212, read-out: MIC): < 2 µg/mL | MIC ([10]; Proteus vulgaris, ATCC8427, read-out: MIC): 1 µg/mL (≈ 2.09 µM) | MIC ([11]; Pseudomonas aeruginosa, ATCC25619, read-out: MIC): 8 µg/mL (≈ 16.8 µM)
SMILES: CNC(C)C1CCC(N)C(OC2C(N)CC(N)C(OC3OCC(C)(O)C(NC)C3O)C2O)O1 (stereo not drawn) [Gen, gentamicin, reference compound]
MBC/MFC [9]: <2 µg/mL | MBC/MFC [10]: 1 µg/mL (≈ 2.09 µM) | MBC/MFC [11]: 16 µg/mL (≈ 33.5 µM)
